In US10150742B2, “Substituted heterocyclic compounds for treating or preventing viral infections” (President and Fellows of Harvard College, priority 2013, dated 2018):

Tests used:
[1] = system: dengue virus serotype 2, DENV2; test: Reduction of DENV viral titer by kinase inhibitors and labelled GNF2 derivatives (cell-based); conditions: for EC90: Dengue virus, DENV2, read-out: EC90 (dengue virus serotype 2, DENV2)
Method: In order to investigate the role of kinases on DENV entry, the order of addition of the cells, virus, and inhibitor was investigated. An inhibitor was either (i) contacted with a virus for 1 h at 37° C.; (ii) contacted with cells for 1 h at 37° C.; or (iii) contacted with a virus and cells for 1 h at 37° C. The cells were washed to remove virus and inhibitor. The washed cells were exposed to either DMSO or an inhibitor. Viral titer was measured at intervals post-infection by harvesting supernatants and measuring virus production by a plaque formation assay (PFA).

Abl kinases = test: Abl kinase inhibition (IC50 kinase); assay type: biochemical
DENV = test: Association of DENV with liposomes; assay type: biochemical
DENV2 [2] = test: Order-of-addition / post-infection treatment, single-cycle DENV2 yield in BHK21 cells by plaque-formation assay; assay type: cell-based; conditions: for inhibition of DENV2 replication when added after infection: post-treatment of cells
Method: To examine the point(s) in the DENV infectious cycle affected by GNF-2, we performed order of addition experiments measuring the effect of GNF-2 when incubated with cells or virus prior to infection (PRE), when added at the time of infection (CO), or when added after the initial infection had been allowed to occur (POST). […] BHK21 cells were inoculated with DENV2 at a multiplicity of infection (MOI) of 1 and incubated for one-hour at 37° C. after which the inoculum was removed, the cells were washed, and fresh medium was added to limit infection to a single round. At twenty-four hours post-infection, corresponding to approximately one complete life cycle of DENV, the yield of infectious virions that had been released to the culture supernatant was quantified by plaque-formation assay (PFA) as a measure of successful DENV replication.

DENV2 [3] = test: DENV2 infectivity assay, compound pre-incubated with virus inoculum, viral yield by plaque formation assay; conditions: treatment of the virus

SMILES	reduction of DENV viral titer [1]	EC90 [1]	IC50 (Abl kinases)	association of DENV with liposomes (DENV)	IC90 (concentration causing a 10-fold decrease in single-cycle viral yield) (DENV2 [2]; added to cells post-infection, BHK21, MOI 1, 24 h)	inhibition of DENV2 replication when added after infection (DENV2 [2])	lowering of DV titer when pre-incubated with the virus, compared to DMSO control (DENV2 [3])
NC(=O)c1cccc(-c2cc(Nc3ccc(OC(F)(F)F)cc3)ncn2)c1 [GNF-2]	over 1 log unit	~1000 nM	138 ± 5 nM	does not block association	8 μM	inhibited DENV2 replication	~1 log
Cc1ccc(NC(=O)c2ccc(CN3CCN(C)CC3)cc2)cc1Nc1nccc(-c2cccnc2)n1 [imatinib]	did not	10000 nM	–	–	–	inhibited DENV2 replication	–
